pIC50: −log10 of the molar value. Like-named read-outs stand apart in the source and are kept apart here. Some results are limits rather than exact numbers.

In patent US10005744B2, “Compounds for the treatment or prevention of breast cancer” (JIANGSU ATOM BIOSCIENCE AND PHARMACEUTICAL CO., LTD., priority 2015, dated 2018) one finds IC50 and inhibition data, which are given here for 10 molecules.

Holding throughout (assay type): cell-based
The subject of assay [1] is human lung cancer cells H1299. Nature of the assay: Growth inhibition of human lung cancer cells H1299. Here is the method:
(§1) 1. Breast cancer cells MCF-7 (Luminal type cells) and MDA-MB-468 (basal-like cells, which are of the triple-negative type without epithelial-mesenchymal transition) were purchased from Cell Resource Center of Shanghai Institutes for Biological Sciences of the Chinese Academy of Sciences, and cultured with DMEM culture medium(containing 10% of fetal bovine serum, 10 U/mL of penicillin and 0.1 mg/mL of streptomycin) in a 5% CO2 incubator at 37[…] until the cell density was about 90%.
(§2) 2. The cells were inoculated to a 96-well plate at a cell population of 3×10^3/well and then cultured in the 5% CO2 incubator for 24 h at 37[…].
(§3) 3. Tested compounds of different concentration gradients were prepared by using the DMEM culture medium, and added into wells at 100 μL/well as tested compounds wells; and, the DMEM culture liquid was added into wells at 100 μL/well as negative control wells. At 37[…] and in the 5% CO2 incubator, the MCF-7 cells were cultured for 120 h, and MDA-MB-468 cells were cultured for 72 h.
(§4) 4. Resazurin (15 mg/50 mL), Methylene Blue (25 mg/10 mL), Potassium ferricyanide (0.329 g/100 mL) and Potassium ferrocyanide (0.422 g/100 mL) were dissolved into PBS (0.1 M, pH=7.4) to obtain Alamar Blue solution for standby.
(§5) 5. The cells were washed with PBS (0.1 M, pH=7.4) for two times, and the Alamar Blue solution was added into wells at 100 μL/well; and 100 μL of Alamar Blue solution was added into wells without cells to serve as blank control cells. The 96-well plate was placed into the 5% CO2 incubator at 37[…] and cultured for 3 h.
(§6) 6. The fluorescence value of the cells was detected at 530/590 nm by ELIASA Victor X4 (Perkin Elmer). The fluorescence value at each concentration was repetitively measured for 4 times to obtain an average value and a standard deviation. The cell viability was calculated by the following formula[User2]: […]
(§7) 7. The half inhibitory concentration (IC50) of the tested compounds againstt he cell lines was obtained according to the cell viability by Prism Graph software.
(§8) Growth inhibition tests of the tested compounds 7, 17, 18, 34, 35 and 41 on the human lung cancer cells H1299, human colon cancer cells HT29, human liver cancer cells SK-HEP-1, human colon cancer cells HCT116, human normal liver cells L-02 and WRL-68 were conducted, and the method refers to Embodiment 19 “Inhibition effects of the compounds on the growth of breast cancer cells MCF-7 and MDA-MB-468”.

Assay [2] has as its system human normal liver cells WRL-68. Nature of the assay: Growth inhibition of human normal liver cells WRL-68. Here is the method: as §1, §2, §3, §4, §5, §6, §7, §8
The subject of assay [3] is MDA-MB-468. Nature of the assay: Growth inhibition of breast cancer cell line MDA-MB-468 (Alamar Blue). Particulars: Homo sapiens, read-out: Half inhibitory concentration (IC50) against MDA-MB-468. Here is the method: as §1, §2, §3, §4, §5, §6, §7
Assay [4] deals with human colon cancer cells HCT116. Nature of the assay: Growth inhibition of human colon cancer cells HCT116. Here is the method:
as §1, §2, §3, §4, §5, §6, §7, §8

The test system of assay [5] is human normal liver cells L-02. Description: Growth inhibition of human normal liver cells L-02. Here is the method: as §1, §2, §3, §4, §5, §6, §7, §8
The subject of assay [6] is MCF-7. Nature of the assay: Growth inhibition of breast cancer cell line MCF-7 (Alamar Blue). Particulars: Homo sapiens; for pIC50: read-out: Half inhibitory concentration (IC50) against MCF-7. As to the method:
as §1, §2, §3, §4, §5, §6, §7

The test system of assay [7] is human colon cancer cells HT29. Description: Growth inhibition of human colon cancer cells HT29. Here is the method: as §1, §2, §3, §4, §5, §6, §7, §8
The test system of assay [8] is human liver cancer cells SK-HEP-1. Nature of the assay: Growth inhibition of human liver cancer cells SK-HEP-1. As to the method:
as §1, §2, §3, §4, §5, §6, §7, §8

Setting [9] is: NCI-H1299, read-out: half inhibitory concentration (IC50).
The mark [10] stands for this setting: WRL68, read-out: half inhibitory concentration (IC50).
Setting [11] is: HCT-116, read-out: half inhibitory concentration (IC50).
The mark [12] stands for this setting: L02, read-out: half inhibitory concentration (IC50).
Setting [13] is: HT-29, read-out: half inhibitory concentration (IC50).
[14] abbreviates: SK-HEP1, read-out: half inhibitory concentration (IC50).

Regarding `Nc1ccc(-c2nc3ccccc3[se]2)cc1Br` [Compound 7, 4-(benzoselenazole-2-yl)-2-bromoaniline], the pIC50 was less than 5.00 in assay [1] (setting [9]); less than 5.00 in assay [2] (setting [10]); 7.13 in assay [3] (MDA-MB-468, 72 h); less than 5.00 in assay [4] (setting [11]); less than 5.00 in assay [5] (setting [12]); 7.25 in assay [6] (MCF7, 120 h). The pIC50 in assay [7] (setting [13]) and in assay [8] (setting [14]) was less than 5.00 each time.
Turning to `Nc1ccc(-c2nc3cc(F)ccc3[se]2)cc1Br` [Compound 14, 2-bromo-4-(5-fluorobenzoselenazole-2-yl)aniline], the pIC50 in assay [3] (MDA-MB-468, 72 h) was 6.86; in assay [6] (MCF7, 120 h), 6.73.
Consider `Cc1cc(-c2nc3cc(F)ccc3[se]2)ccc1N` [Compound 17, 4-(5-fluorobenzoselenazole-2-yl)-2-methylaniline], for which the pIC50 in assay [1] (setting [9]) was less than 5.00; in assay [2] (setting [10]) it was less than 5.00; in assay [3] (MDA-MB-468, 72 h), 7.23; in assay [4] (setting [11]) it was less than 5.00; in assay [5] (setting [12]), less than 5.00; in assay [6] (MCF7, 120 h), 7.14. The pIC50 in assay [7] (setting [13]) and in assay [8] (setting [14]) was less than 5.00 throughout.
As for `Cc1cc(-c2nc3cc(F)ccc3[se]2)cc(Br)c1N` [Compound 18, 2-bromo-4-(5-fluorobenzoselenazole-2-yl)-6-methylaniline], the pIC50 in assay [1] (setting [9]) was less than 5.00; in assay [2] (setting [10]), less than 5.00; in assay [3] (MDA-MB-468, 72 h), 7.15; in assay [4] (setting [11]), less than 5.00; in assay [5] (setting [12]), less than 5.00; in assay [6] (MCF7, 120 h), 7.04. For the same molecule, the pIC50 in assay [7] (setting [13]) and in assay [8] (setting [14]) was less than 5.00 throughout.
Take `Cc1ccc2[se]c(-c3ccc(N)c(C)c3)nc2c1` [Compound 26, 2-methyl-4-(5-methylbenzoselenazole-2-yl)aniline]: the pIC50 in assay [6] (MCF7, 120 h) was 6.87.
Consider `Nc1ccc(-c2nc3cc(F)ccc3[se]2)cc1F` [Compound 34, 2-fluoro-4-(5-fluorobenzoselenazole-2-yl)aniline], for which the pIC50 is less than 5.00 in assay [1] (setting [9]); less than 5.00 in assay [2] (setting [10]); 7.54 in assay [3] (MDA-MB-468, 72 h); less than 5.00 in assay [4] (setting [11]); less than 5.00 in assay [5] (setting [12]); 7.28 in assay [6] (MCF7, 120 h). Further, the pIC50 in assay [7] (setting [13]) and in assay [8] (setting [14]) was less than 5.00 each time.
Regarding `Nc1c(F)cc(-c2nc3cc(F)ccc3[se]2)cc1Br` [Compound 35, 2-bromo-6-fluoro-4-(5-fluorobenzoselenazole-2-yl)aniline], the pIC50 in assay [1] (setting [9]) was less than 5.00; in assay [2] (setting [10]), less than 5.00; in assay [3] (MDA-MB-468, 72 h), 7.40; in assay [4] (setting [11]) it was less than 5.00; in assay [5] (setting [12]), less than 5.00; in assay [6] (MCF7, 120 h), 7.38. For the same molecule, the pIC50 in assay [7] (setting [13]) and in assay [8] (setting [14]) was less than 5.00 in each case.
Turning to `Cc1ccc(-c2nc3cc(F)ccc3[se]2)cc1N` [Compound 37, 5-(5-fluorobenzoselenazole-2-yl)-2-methylaniline], the pIC50 is 6.94 in assay [3] (MDA-MB-468, 72 h) and 6.35 in assay [6] (MCF7, 120 h).
For the molecule `Nc1c(F)cc(-c2nc3cc(F)ccc3[se]2)cc1F` [Compound 41, 2,6-difluoro-4-(5-fluorobenzoselenazole-2-yl)aniline], the pIC50 in assay [1] (setting [9]) is less than 5.00; in assay [2] (setting [10]), less than 5.00; in assay [3] (MDA-MB-468, 72 h), 7.70; in assay [4] (setting [11]) it was less than 5.00; in assay [5] (setting [12]), less than 5.00; in assay [6] (MCF7, 120 h), 7.25. For the same molecule, the pIC50 in assay [7] (setting [13]) and in assay [8] (setting [14]) was less than 5.00 throughout.
For `CC(=O)O[C@H]1C(=O)[C@@]2(C)[C@H]([C@H](OC(=O)c3ccccc3)[C@]3(O)C[C@H](OC(=O)[C@H](O)[C@@H](NC(=O)c4ccccc4)c4ccccc4)C(C)=C1C3(C)C)[C@]1(OC(C)=O)CO[C@@H]1C[C@@H]2O` [Paclitaxel, paclitaxel, reference compound], the pIC50 was 7.82 to 8.80 in assay [1] (NCI-H1299, H1299 cells, range stated over the six cell lines, read-out: half inhibitory concentration (IC50)); 7.82 to 8.80 in assay [2] (WRL68, WRL-68 cells, range stated over the six cell lines, read-out: half inhibitory concentration (IC50)); 8.35 in assay [3] (MDA-MB-468 cells cultured 72 h with compound, Alamar Blue); 7.82 to 8.80 in assay [4] (HCT-116, HCT116 cells, range stated over the six cell lines, read-out: half inhibitory concentration (IC50)); 7.82 to 8.80 in assay [5] (L02, L-02 cells, range stated over the six cell lines, read-out: half inhibitory concentration (IC50)); 8.34 in assay [6] (MCF7, MCF-7 cells cultured 120 h with compound, Alamar Blue). Further, the pIC50 in assay [7] (HT-29, HT29 cells, range stated over the six cell lines, read-out: half inhibitory concentration (IC50)) is 7.82 to 8.80; in assay [8] (SK-HEP1, SK-HEP-1 cells, range stated over the six cell lines, read-out: half inhibitory concentration (IC50)) it was 7.82 to 8.80. In addition, in assay [6] (MCF7, highest concentration, 500 nM, read-out: inhibition rate to MCF-7 cell line), the inhibition at 0.5 µM came to 70%.
